Results published in patent US20090170804A1, “PIRFENIDONE/TOLL-LIKE RECEPTOR (TLR) AGONIST COMPOSITIONS AND METHODS FOR USING THEM TO STIMULATE PRODUCTION OF GRANULOCYTE COLONIZING STIMULATING FACTOR (G-CSF)” (priority 2005, published 2009).
Where two headings read alike, the source gives them in different places.

Legend:
[1] = system: Human PBMCs; test: p38 inhibitors: TLR-agonist-mediated TNF-α and G-CSF release from human PBMCs; format: cell-based; conditions: 1 h pretreatment, then LPS, Fibrin, LTA, PG or CpG for 24 hours
Text: The effect of various p38 inhibitors on LPS-mediated TNF-α and G-CSF release from human PBMCs was examined. Briefly, human PBMCs (10^5 cells per well) were pretreated with pirfenidone, a hydroxyl-pirfenidone derivative, SB202190 (commercially available p38 inhibitor), or SB203580 (commercially available p38 inhibitor) for one hour in a 96-well plate and then stimulated with lipopolysaccharide (LPS, binds TLR4), Fibrin (binds TLR4), lipoteichoic acid (LTA, binds TLR2), peptidoglycan (PG, binds TLR2), or CpG (bacterial DNA, binds TLR9) for 24 hours at 37° C. Subsequently, cells were spun and supernatants collected and assayed for G-CSF expression.
Each TLR agonist alone is set to 1 (positive control) and the subsequent release of G-CSF in the presence of p38 inhibitors is determined relative to the positive control.

[2] = system: Human PBMCs; test: LPS-mediated cytokine induction in human PBMCs (BioRad Multiplex Cytokine Platform); format: cell-based; set-up: TNF-α release in PBMCs (FIG. 9) / G-CSF release in PBMCs (FIG. 9): dose or concentration left out as unconfirmed; conditions: for IC50: PBMC, 1 h pirfenidone pretreatment, LPS, optimal expression at 8 hours
Description: Human PBMCs (10^5 cells per well) were pretreated with pirfenidone (5 mM to 5 μM) for one hour in a 96-well plate and then stimulated with LPS ([…] to 0.01 ng/ml) for 1, 2, 8, or 24 hours at 37° C. Subsequently, cells were spun and supernatants collected and assayed for protein expression using the BioRad Multiplex Cytokine Platform, which enables 17 different cytokines to be analyzed simultaneously: G-CSF, GM-CSF, IFN-γ, IL-1β, IL-2, IL-4, IL-5, IL-6, IL-7, IL-8, IL-10, IL-12 (p70), IL-13, IL-17, MCP-1, MIP-1β, and TNF-α.

[3] = in the presence of pirfenidone (lmM)

TLR-induced G-CSF release (FIG. 12, fold induction relative to TLR agonist alone) [1]	Molecule	IC50 ([2]; human PBMCs, read-out: pirfenidone IC50 for IL-1β (LPS-mediated cytokine induction)) [µM]	IC50 ([2]; human PBMCs, read-out: pirfenidone IC50 for TNF-α (LPS-mediated cytokine induction)) [µM]	LPS-mediated release of G-CSF ([2]; human PBMCs)	LPS-mediated release of GM-CSF ([2]; human PBMCs)	LPS-mediated release of IFN-γ ([2]; human PBMCs)	LPS-mediated release of IL-1β ([2]; human PBMCs)	LPS-mediated release of IL-10 ([2]; human PBMCs)	LPS-mediated release of MCP-1 ([2]; human PBMCs)	LPS-mediated release of TNF-α ([2]; human PBMCs)	constitutive (but not LPS-mediated) expression of IL-6 ([2]; human PBMCs)	constitutive (but not LPS-mediated) expression of IL-8 ([2]; human PBMCs)	constitutive (but not LPS-mediated) expression of MIP-1β ([2]; human PBMCs)	LPS-induced expression of G-CSF augmented by [2, 3] [%]	LPS-induced expression of IL-10 augmented by [2, 3] [%]	TNF-α expression in PBMCs (FIG. 1) ([2]; pirfenidone 185 μg/mL and LPS 1 μg/mL)	G-CSF release in PBMCs (FIG. 9) ([2]; pirfenidone and LPS)	TNF-α release in PBMCs (FIG. 9) ([2]; pirfenidone and LPS)	induction of expression of IL-2, IL-4, IL-5, IL-7, IL-12, IL-13, or IL-17 ([2]; human PBMCs stimulated with LPS)
augmented	Cc1ccc(=O)n(-c2ccccc2)c1 [pirfenidone, 5-methyl-1-phenyl-2-(1H)-pyridone]	~2500	~1000	augmented	inhibited	inhibited	inhibited	augmented	augmented	inhibited	inhibited	inhibited	inhibited	100	35	reduced	increased	decreased	–
–	lipopolysaccharide [LPS]	–	–	–	–	–	–	–	–	–	–	–	–	–	–	–	–	–	did not induce
